Read-outs that look alike come from different tables or passages of the source.
Tests used:
Experiment in all cases: In vitro fungicide screen: inhibition of mycelial growth on agar medium
Format in all cases: cell-based
Botrytis cinerea (Botry) = settings: five days, room temperature
Description: (§1) Severe soilborne diseases such as damping off, seedling blight, crown rot, and root rot, among others are caused by certain plant pathogenic fungi. An in vitro assay is conducted to determine whether test compounds will inhibit the mycelial growth of said fungi. Pathogens, the method of testing, and the rating system used are reported below.
(§2) Assay fungi include the following plant pathogens: • Botrytis cinerea (Botry) • Pseudocerosporella herpotrichoides (Pseudo) • Pythium ultimum (Pyth) • Rhizoctonia solani (Rhiz)
(§3) The test compound (2.5-10 mg) is dissolved in 0.5 mL acetone, diluted with 4.5 mL sterile deionized water, and mixed with 95 mL of an autoclaved and partially cooled, chemically defined agar medium in a 250 mL flask. Test compounds that are insoluble are prepared as a fine suspension ultrasonically, or with a glass tissue grinder, before addition to the medium. The chemically defined medium used in these experiments is as follows: • 15 g of sucrose, 0.5 g NH4Cl, 0.5 g KNO3, 0.5 g KH2PO4, 0.5 g K2HP04, 0.25 g MgSO4.7H2O, 50 mg CaC)2.6H20, 0.75 mg FeSO4.7H2O, 0.22 mg MnSO4.5H2O, 0.6 mg CuSO4.5H2O, 7.5 mg ZnC12, 2.5 mg thiamine, 60 µg(NH4)6Mo7O24.4H2O, 90 u.g H3BO3, 5 ug biotin, 20 g agar, and water to 1L.
(§4) The mixture of test compound and agar medium as described above is poured into several 100 mm x 15 mm sterile plastic plates and allowed to solidify. The surface of each plate is inoculated with a single disc of mycelium and agar cut with an 8 mm diameter cork borer from actively growing cultures of assay fungi on a chemically defined agar medium. The plates are incubated at room temperature. Growth inhibition is determined when the mycelial growth on unamended control media has reached the edge of the petri plates. The time interval varies depending on the growth rate of the fungus; two days for Pythium ultimum (Pyth) and Rhizoctonia solani (Rhiz), five days for Botrytis cinerea (Botry), and 7-10 days for Pseudocercosporella herpotrichoides (Pseudo). Each colony diameter is measured and compared with the untreated control and the percent inhibition is calculated as follows: [formula] Each test includes a solvent blank consisting of the formulation without a test compound in addition to the untreated control.

[1] = tested on: Pseudocercosporella herpotrichoides (Pseudo); settings: 7-10 days, room temperature
Description: as §1, §2, §3, §4

Pythium ultimum (Pyth) = settings: two days, room temperature; for inhibition at 1 ppm: Rate 1 ppm in agar medium
Description: as §1, §2, §3, §4

[2] = tested on: Rhizoctonia solani (Rhiz); settings: for inhibition at 10 ppm: read-out: % Growth Inhibition Rhiz
Description: as §1, §2, §3, §4

[3] = Botrytis cinerea, 120 h, Rate 100 ppm in agar medium
[4] = Oculimacula yallundae, Rate 100 ppm in agar medium
[5] = Globisporangium ultimum, 48 h, Rate 100 ppm in agar medium
[6] = Rhizoctonia solani, 48 h, Rate 100 ppm in agar medium, two days, room temperature
[7] = Rhizoctonia solani, 48 h, Rate 10 ppm in agar medium, two days, room temperature

Compound	inhibition at 100 ppm (Botrytis cinerea (Botry); [3]) [%]	inhibition at 100 ppm [1, 4] [%]	inhibition at 100 ppm (Pythium ultimum (Pyth); [5]) [%]	inhibition at 100 ppm [2, 6] [%]	also measured
O=[N+]([O-])c1c(-c2ccccc2)[nH]c(Br)c1Br [2,3-Dibromo-4-nitro-5-phenyl-pyrrole]	87	71	97	63	–
O=[N+]([O-])c1c(-c2ccc(C(F)(F)F)cc2)[nH]c(Cl)c1Cl [2,3-Dichloro-4-nitro-5-(α,α,α-trifluoro-p-tolyl)-pyrrole]	100	100	100	100	–
N#Cc1c(-c2ccccc2Cl)[nH]c(Cl)c1Cl [4,5 Dichloro-2-(o-chlorophenyl) pyrrole-3-carbo-nitrile]	–	–	–	–	% Growth Inhibition Botry (Botrytis cinerea (Botry); Rate 100 ppm in agar medium): 3.1%; % Growth Inhibition Pseudo ([1]; Rate 100 ppm in agar medium): 16.7%; % Growth Inhibition Pyth (Pythium ultimum (Pyth); Rate 100 ppm in agar medium): 0%; % Growth Inhibition Rhiz ([2]; Rate 100 ppm in agar medium, two days, room temperature): 52.6%
N#Cc1c(-c2ccc(Cl)cc2)[nH]c(Cl)c1Cl [4,5-Dichloro-2-(p-chlorophenyl)pyrrole-3-carbonitrile]	66.7	42.8	45	64.7	inhibition at 25 ppm (Botrytis cinerea (Botry); Botrytis cinerea, 120 h, Rate 25 ppm in agar medium): 82.1%; inhibition at 50 ppm (Botrytis cinerea (Botry); Botrytis cinerea, 120 h, Rate 50 ppm in agar medium): 71.4%; inhibition at 25 ppm ([1]; Oculimacula yallundae, Rate 25 ppm in agar medium): 0%; inhibition at 50 ppm ([1]; Oculimacula yallundae, Rate 50 ppm in agar medium): 40%; inhibition at 25 ppm (Pythium ultimum (Pyth); Globisporangium ultimum, 48 h, Rate 25 ppm in agar medium): 34.2%; inhibition at 50 ppm (Pythium ultimum (Pyth); Globisporangium ultimum, 48 h, Rate 50 ppm in agar medium): 44.7%; inhibition at 25 ppm ([2]; Rhizoctonia solani, 48 h, Rate 25 ppm in agar medium, two days, room temperature): 73.3%; inhibition at 50 ppm ([2]; Rhizoctonia solani, 48 h, Rate 50 ppm in agar medium, two days, room temperature): 73.3%
N#Cc1c(-c2ccc(Cl)cc2)[nH]c(C(F)(F)F)c1Br [4-Bromo-2-(p-chlorophenyl)-5-(trifluoromethyl)pyrrole-3-carbonitrile]	–	–	–	–	inhibition at 10 ppm ([2]; Rhizoctonia solani, 48 h): 100%
N#Cc1cc[nH]c1-c1cccc(Cl)c1 [2-(m-Chloro-phenyl)pyrrole-3-carbonitrile]	74	67	82	95	–
N#Cc1cc([N+](=O)[O-])c(-c2ccc(Cl)c(Cl)c2)[nH]1 [5-(3,4-Dichlorophenyl)-4-nitropyrrole-2-carbonitrile]	–	–	–	–	inhibition at 1 ppm (Pythium ultimum (Pyth); Globisporangium ultimum, 48 h): 100%; inhibition at 10 ppm [2, 7]: 100%
N#Cc1cc[nH]c1-c1ccccc1 [2-Phenylpyrrole-3-carbonitrile, 2-Phenylpyrrole-3-carbonitrile]	95	100	100	89	–
O=[N+]([O-])c1c(-c2ccc(Br)cc2)[nH]c(Cl)c1Cl [2-(p-Bromo-phenyl)-4,5-dichloro-3-nitropyrrole]	89	83	68	92	–
O=[N+]([O-])c1c(Br)[nH]c(Br)c1-c1ccccc1 [2,5-dibromo-3-nitro-4-phenyl-pyrrole]	–	–	–	–	inhibition at 10 ppm ([1]; Oculimacula yallundae, Rate 10 ppm in agar medium): 100%; inhibition at 1 ppm (Pythium ultimum (Pyth); Globisporangium ultimum, 48 h): 100%; inhibition at 10 ppm [2, 7]: 100%
O=[N+]([O-])c1c(-c2ccc(Cl)cc2)[nH]c(Cl)c1Cl [2,3-Dichloro-5-(p-chlorophenyl) -4-nitropyrrole]	96.3	50	92.1	96	–
N#Cc1cc[nH]c1-c1ccc(Cl)cc1 [2(p-Chlorophenyl)-pyrrole-3-carbonitrile]	68	86	95	61	–
O=[N+]([O-])c1c(-c2ccccc2)[nH]c(Cl)c1Cl [2,3-Dichloro-4-nitro-5-phenyl-pyrrole, 2,3-Dichloro-4-nitro-5-phenylpyrrole]	97	100	100	81	–

Reference: patent EP0358047A2, “Method of controlling phytopathogenic fungi” (AMERICAN CYANAMID COMPANY, priority 1988, dated 1990)
